Measured values taken from patent US20060211026A1, “Methods for assessing emphysema” (Roche Palo Alto LLC, priority 2005, published 2006).

Columns and labels:
Type in all cases: in vivo, Sprague-Dawley rats
tropoelastin = test: Tropoelastin ELISA in homogenized lung tissue of smoke-exposed rats; conditions: oral daily 30 days after 8 months smoke; ATRA 3 mg/kg, R667 0.07-0.7 mg/kg; FIG. 1
Description: FIG. 1 depicts the amount of tropoelastin (in ng) measured in rats after treatment as set forth in Example 1(B).
(§1) (B) Adult male Sprague-Dawley rats were exposed daily to 10 cigarettes/rat for 8 months (control rats were exposed to air) to establish emphysema lesions. […] Supernatant from homogenized lung tissue was analyzed for concentration of tropoelastin by ELISA (using rabbit anti-tropoelastin; Elastin Products Co.).

[1] = test system: gene expression in lung right lobes of 8 months smoked rats; test: Lung gene expression by Affymetrix microarray in smoke-exposed rats
Description: as §1
Three individual lung right lobes from each condition were processed to extract mRNA according to standard Affymetrix protocols, and samples hybridized to Affymetrix Rat Expression Set 230 microarrays. Gene expression was analyzed using the Bioconductor package (Gentleman et al., Genome Biol (2004) v. 5), and differentially expressed genes selected using ANOVA model followed by Dunnett's test.

[2] = test system: gene expression in lung right lobes of 8 months smoked rats; test: Lung gene expression by quantitative PCR in smoke-exposed rats; conditions: for Adam17 gene expression relative to 8 months smoked rats / Angpt1 gene expression relative to 8 months smoked rats / Areg gene expression relative to 8 months smoked rats / Colla1 gene expression relative to 8 months smoked rats / Crabp2 gene expression relative to 8 months smoked rats / Csf2 gene expression relative to 8 months smoked rats / Cxcl1 gene expression relative to 8 months smoked rats / Cxcl2 gene expression relative to 8 months smoked rats / Cxcl5 gene expression relative to 8 months smoked rats / Cyp26a1 gene expression relative to 8 months smoked rats / EGFR gene expression relative to 8 months smoked rats / Eln gene expression relative to 8 months smoked rats / FGF7 gene expression relative to 8 months smoked rats / Flt1 gene expression relative to 8 months smoked rats / Hif1a gene expression relative to 8 months smoked rats / HpGF gene expression relative to 8 months smoked rats / Hyou1 gene expression relative to 8 months smoked rats / Il6 gene expression relative to 8 months smoked rats / Il8ra/CXCR1 gene expression relative to 8 months smoked rats / Il8rb/CXCR2 gene expression relative to 8 months smoked rats / Kdr gene expression relative to 8 months smoked rats / Mmp9 gene expression relative to 8 months smoked rats / Mmp12 gene expression relative to 8 months smoked rats / PDGFA gene expression relative to 8 months smoked rats / Pgf gene expression relative to 8 months smoked rats / Rbp1 gene expression relative to 8 months smoked rats / Serpina1 gene expression relative to 8 months smoked rats / Sftpa1 gene expression relative to 8 months smoked rats / Sftpb gene expression relative to 8 months smoked rats / Slpi gene expression relative to 8 months smoked rats / TNF gene expression relative to 8 months smoked rats / Tek gene expression relative to 8 months smoked rats / Tgfb1 gene expression relative to 8 months smoked rats / Tgfbr2 gene expression relative to 8 months smoked rats / Tgm2 gene expression relative to 8 months smoked rats / Timp3 gene expression relative to 8 months smoked rats / VEGFa gene expression relative to 8 months smoked rats: rat lung
Description: as §1
RNA prepared from snap-frozen lung right lobes was analyzed for gene expression by quantitative PCR, using ABI Taqman following standard procedures.

[3] = R667 0.07 mg/kg oral daily 30 days
[4] = R667 0.15 mg/kg oral daily 30 days
[5] = R667 0.7 mg/kg oral daily 30 days

Structure (SMILES): CC1=C(/C=C/C(C)=C/C=C/C(C)=C/C(=O)O)C(C)(C)CCC1 [ATRA, all-trans retinoic acid, reference compound]
- Tropoelastin in lung tissue (effect of treatment) (tropoelastin): partially restored

Structure (SMILES): CC1(C)CCC(C)(C)c2cc(Cn3cccn3)c(C=Cc3ccc(C(=O)O)cc3)cc21 [R667, 4-[2-(5,5,8,8-tetramethyl-3-pyrazol-1-ylmethyl-5,6,7,8-tetrahydronaphthalen2-yl)-vinyl]-benzoic acid]
- Tropoelastin in lung tissue (effect of treatment) (tropoelastin): partially restored
- ELN expression level from microarray, relative to the 8 months smoked rat [1, 3]: 2.8 fold
- VEGF expression level from microarray, relative to the 8 months smoked rat [1, 3]: 1.7 fold
- ELN expression level from microarray, relative to the 8 months smoked rat [1, 4]: 3.1 fold
- VEGF expression level from microarray, relative to the 8 months smoked rat [1, 4]: 1.5 fold
- ELN expression level from microarray, relative to the 8 months smoked rat [1, 5]: 3.8 fold
- VEGF expression level from microarray, relative to the 8 months smoked rat [1, 5]: 2.4 fold
- Adam17 gene expression relative to 8 months smoked rats [2, 3]: 3.5
- Angpt1 gene expression relative to 8 months smoked rats [2, 3]: 3.8
- Areg gene expression relative to 8 months smoked rats [2, 3]: 5.9
- Colla1 gene expression relative to 8 months smoked rats [2, 3]: 7.1
- Crabp2 gene expression relative to 8 months smoked rats [2, 3]: 2.0
- Csf2 gene expression relative to 8 months smoked rats [2, 3]: 1.5
- Cxcl1 gene expression relative to 8 months smoked rats [2, 3]: 3.3
- Cxcl2 gene expression relative to 8 months smoked rats [2, 3]: 2.3
- Cxcl5 gene expression relative to 8 months smoked rats [2, 3]: 50.1
- Cyp26a1 gene expression relative to 8 months smoked rats [2, 3]: 2.2
- EGFR gene expression relative to 8 months smoked rats [2, 3]: 4.8
- Eln gene expression relative to 8 months smoked rats [2, 3]: 5.6
- FGF7 gene expression relative to 8 months smoked rats [2, 3]: 2.1
- Flt1 gene expression relative to 8 months smoked rats [2, 3]: 1.7
- Hif1a gene expression relative to 8 months smoked rats [2, 3]: 1.7
- HpGF gene expression relative to 8 months smoked rats [2, 3]: 3.0
- Hyou1 gene expression relative to 8 months smoked rats [2, 3]: 2.7
- Il6 gene expression relative to 8 months smoked rats [2, 3]: 1.8
- Il8ra/CXCR1 gene expression relative to 8 months smoked rats [2, 3]: 3.8
- Il8rb/CXCR2 gene expression relative to 8 months smoked rats [2, 3]: 2.0
- Kdr gene expression relative to 8 months smoked rats [2, 3]: 1.3
- Mmp9 gene expression relative to 8 months smoked rats [2, 3]: 1.7
- Mmp12 gene expression relative to 8 months smoked rats [2, 3]: 4.9
- PDGFA gene expression relative to 8 months smoked rats [2, 3]: 4.3
- Pgf gene expression relative to 8 months smoked rats [2, 3]: 1.6
- Rbp1 gene expression relative to 8 months smoked rats [2, 3]: 2.1
- Serpina1 gene expression relative to 8 months smoked rats [2, 3]: 2.3
- Sftpa1 gene expression relative to 8 months smoked rats [2, 3]: 5.4
- Sftpb gene expression relative to 8 months smoked rats [2, 3]: 1.9
- Slpi gene expression relative to 8 months smoked rats [2, 3]: 3.6
- TNF gene expression relative to 8 months smoked rats [2, 3]: 3.3
- Tek gene expression relative to 8 months smoked rats [2, 3]: 1.4
- Tgfb1 gene expression relative to 8 months smoked rats [2, 3]: 1.4
- Tgfbr2 gene expression relative to 8 months smoked rats [2, 3]: 2.0
- Tgm2 gene expression relative to 8 months smoked rats [2, 3]: 16.2
- Timp3 gene expression relative to 8 months smoked rats [2, 3]: 3.5
- VEGFa gene expression relative to 8 months smoked rats [2, 3]: 1.6
- Adam17 gene expression relative to 8 months smoked rats [2, 4]: 3.6
- Angpt1 gene expression relative to 8 months smoked rats [2, 4]: 1.8
- Areg gene expression relative to 8 months smoked rats [2, 4]: 3.7
- Colla1 gene expression relative to 8 months smoked rats [2, 4]: 8.4
- Crabp2 gene expression relative to 8 months smoked rats [2, 4]: 1.5
- Csf2 gene expression relative to 8 months smoked rats [2, 4]: 1.9
- Cxcl1 gene expression relative to 8 months smoked rats [2, 4]: 2.9
- Cxcl2 gene expression relative to 8 months smoked rats [2, 4]: 1.6
- Cxcl5 gene expression relative to 8 months smoked rats [2, 4]: 50.0
- Cyp26a1 gene expression relative to 8 months smoked rats [2, 4]: 3.9
- EGFR gene expression relative to 8 months smoked rats [2, 4]: 3.2
- Eln gene expression relative to 8 months smoked rats [2, 4]: 6.1
- FGF7 gene expression relative to 8 months smoked rats [2, 4]: 2.1
- Flt1 gene expression relative to 8 months smoked rats [2, 4]: 1.8
- Hif1a gene expression relative to 8 months smoked rats [2, 4]: 1.4
- HpGF gene expression relative to 8 months smoked rats [2, 4]: 3.1
- Hyou1 gene expression relative to 8 months smoked rats [2, 4]: 3.3
- Il6 gene expression relative to 8 months smoked rats [2, 4]: 2.4
- Il8ra/CXCR1 gene expression relative to 8 months smoked rats [2, 4]: 4.5
- Il8rb/CXCR2 gene expression relative to 8 months smoked rats [2, 4]: 2.0
- Kdr gene expression relative to 8 months smoked rats [2, 4]: 1.9
- Mmp9 gene expression relative to 8 months smoked rats [2, 4]: 1.5
- Mmp12 gene expression relative to 8 months smoked rats [2, 4]: 5.9
- PDGFA gene expression relative to 8 months smoked rats [2, 4]: 2.9
- Pgf gene expression relative to 8 months smoked rats [2, 4]: 0.9
- Rbp1 gene expression relative to 8 months smoked rats [2, 4]: 3.5
- Serpina1 gene expression relative to 8 months smoked rats [2, 4]: 1.5
- Sftpa1 gene expression relative to 8 months smoked rats [2, 4]: 4.4
- Sftpb gene expression relative to 8 months smoked rats [2, 4]: 2.1
- Slpi gene expression relative to 8 months smoked rats [2, 4]: 1.6
- TNF gene expression relative to 8 months smoked rats [2, 4]: 4.2
- Tek gene expression relative to 8 months smoked rats [2, 4]: 1.3
- Tgfb1 gene expression relative to 8 months smoked rats [2, 4]: 2.0
- Tgfbr2 gene expression relative to 8 months smoked rats [2, 4]: 1.5
- Tgm2 gene expression relative to 8 months smoked rats [2, 4]: 28.3
- Timp3 gene expression relative to 8 months smoked rats [2, 4]: 2.9
- VEGFa gene expression relative to 8 months smoked rats [2, 4]: 2.3
- Adam17 gene expression relative to 8 months smoked rats [2, 5]: 7.8
- Angpt1 gene expression relative to 8 months smoked rats [2, 5]: 3.1
- Areg gene expression relative to 8 months smoked rats [2, 5]: 7.2
- Colla1 gene expression relative to 8 months smoked rats [2, 5]: 7.9
- Crabp2 gene expression relative to 8 months smoked rats [2, 5]: 1.4
- Csf2 gene expression relative to 8 months smoked rats [2, 5]: 2.9
- Cxcl1 gene expression relative to 8 months smoked rats [2, 5]: 6.5
- Cxcl2 gene expression relative to 8 months smoked rats [2, 5]: 3.4
- Cxcl5 gene expression relative to 8 months smoked rats [2, 5]: 81.6
- Cyp26a1 gene expression relative to 8 months smoked rats [2, 5]: 3.7
- EGFR gene expression relative to 8 months smoked rats [2, 5]: 4.0
- Eln gene expression relative to 8 months smoked rats [2, 5]: 9.4
- FGF7 gene expression relative to 8 months smoked rats [2, 5]: 1.6
- Flt1 gene expression relative to 8 months smoked rats [2, 5]: 2.6
- Hif1a gene expression relative to 8 months smoked rats [2, 5]: 2.0
- HpGF gene expression relative to 8 months smoked rats [2, 5]: 5.6
- Hyou1 gene expression relative to 8 months smoked rats [2, 5]: 5.8
- Il6 gene expression relative to 8 months smoked rats [2, 5]: 4.5
- Il8ra/CXCR1 gene expression relative to 8 months smoked rats [2, 5]: 4.2
- Il8rb/CXCR2 gene expression relative to 8 months smoked rats [2, 5]: 2.5
- Kdr gene expression relative to 8 months smoked rats [2, 5]: 1.7
- Mmp9 gene expression relative to 8 months smoked rats [2, 5]: 1.9
- Mmp12 gene expression relative to 8 months smoked rats [2, 5]: 7.3
- PDGFA gene expression relative to 8 months smoked rats [2, 5]: 4.5
- Pgf gene expression relative to 8 months smoked rats [2, 5]: 2.7
- Rbp1 gene expression relative to 8 months smoked rats [2, 5]: 3.9
- Serpina1 gene expression relative to 8 months smoked rats [2, 5]: 2.9
- Sftpa1 gene expression relative to 8 months smoked rats [2, 5]: 7.0
- Sftpb gene expression relative to 8 months smoked rats [2, 5]: 2.9
- Slpi gene expression relative to 8 months smoked rats [2, 5]: 4.4
- TNF gene expression relative to 8 months smoked rats [2, 5]: 4.0
- Tek gene expression relative to 8 months smoked rats [2, 5]: 1.3
- Tgfb1 gene expression relative to 8 months smoked rats [2, 5]: 3.2
- Tgfbr2 gene expression relative to 8 months smoked rats [2, 5]: 2.1
- Tgm2 gene expression relative to 8 months smoked rats [2, 5]: 24.6
- Timp3 gene expression relative to 8 months smoked rats [2, 5]: 4.8
- VEGFa gene expression relative to 8 months smoked rats [2, 5]: 2.9
- Restoration of smoke-suppressed gene expression in lung ([2]; rats smoked 8 months, then R667 daily 30 days): restore expression of these genes to near-normal levels
